# Assay results from article PMC8364686, “Safety, tolerability, pharmacokinetics and pharmacodynamics of single oral doses of BI 187004, an inhibitor of 11beta-hydroxysteroid dehydrogenase-1, in healthy male volunteers with overweight or obesity” (Clinical Diabetes and Endocrinology, 2021).
# Experiment: Plasma pharmacokinetics of BI 187004 after single oral doses (LC–MS/MS)
# Details: male, human, plasma, po; for concentration at 36 h: planned time 36 h; for concentration at 48 h: planned time 48 h; for concentration at 72 h: planned time 72 h; for concentration at 96 h: planned time 96 h; for concentration at 0.5 h: planned time 0.5 h; for concentration at 1 h: planned time 1 h; for concentration at 1.5 h: planned time 1.5 h; for concentration at 2 h: planned time 2 h; for concentration at 2.5 h: planned time 2.5 h; for concentration at 3 h: planned time 3 h; for concentration at 4 h: planned time 4 h; for concentration at 5 h: planned time 5 h; for concentration at 6 h: planned time 6 h; for concentration at 8 h: planned time 8 h; for concentration at 10 h: planned time 10 h; for concentration at 12 h: planned time 12 h
# [1] = 80 mg, BI 187004 plasma concentrations, 80 mg single oral, Max
# [2] = 80 mg, BI 187004 plasma concentrations, 80 mg single oral, Mean
# [3] = 80 mg, BI 187004 plasma concentrations, 80 mg single oral, Median
# [4] = 80 mg, BI 187004 plasma concentrations, 80 mg single oral, Min
# [5] = 80 mg, BI 187004 plasma concentrations, 80 mg single oral, gMean
# [6] = 160 mg, BI 187004 plasma concentrations, 160 mg single oral, Max
# [7] = 160 mg, BI 187004 plasma concentrations, 160 mg single oral, Mean
# [8] = 160 mg, BI 187004 plasma concentrations, 160 mg single oral, Median
# [9] = 160 mg, BI 187004 plasma concentrations, 160 mg single oral, Min
# [10] = 160 mg, BI 187004 plasma concentrations, 160 mg single oral, gMean
# [11] = 160 mg, BI 187004 plasma concentrations, 160 mg single oral, individual subjects
smiles,measurement,setting,value
N#Cc1ccc2c(c1)[C@H]1CCCN(C(=O)c3ccc4[nH]cnc4c3)[C@H]1C2 [BI 187004],concentration at 24 h,"80 mg, BI 187004 plasma concentrations, 80 mg single oral, planned time 24 h, Median",0.812 µM
same,concentration at 24 h,"80 mg, BI 187004 plasma concentrations, 80 mg single oral, planned time 24 h, Min",0.605 µM
same,concentration at 24 h,"80 mg, BI 187004 plasma concentrations, 80 mg single oral, planned time 24 h, gMean",0.878 µM
same,concentration at 36 h,[1],0.678 µM
same,concentration at 36 h,[2],0.411 µM
same,concentration at 36 h,[3],0.372 µM
same,concentration at 36 h,[4],0.223 µM
same,concentration at 36 h,[5],0.383 µM
same,concentration at 48 h,[1],0.596 µM
same,concentration at 48 h,[2],0.281 µM
same,concentration at 48 h,[3],0.23 µM
same,concentration at 48 h,[4],0.134 µM
same,concentration at 48 h,[5],0.247 µM
same,concentration at 72 h,[1],0.234 µM
same,concentration at 72 h,[2],0.09 µM
same,concentration at 72 h,[3],0.0651 µM
same,concentration at 72 h,[4],0.0463 µM
same,concentration at 72 h,[5],0.0742 µM
same,concentration at 96 h,[1],0.11 µM
same,concentration at 96 h,[2],0.0449 µM
same,concentration at 96 h,[3],0.0238 µM
same,concentration at 96 h,[4],0.0119 µM
same,concentration at 96 h,[5],0.0323 µM
same,concentration at 24 h,"80 mg, C24 gMean (%gCV), 80 mg single oral dose",0.878 µM
same,AUC(0-inf),160 mg,111 µM·h
same,AUC(0-t),160 mg,82.1 µM·h
same,Cmax,160 mg,8.31 µM
same,Tmax,160 mg,1 h
same,Vd/F,160 mg,87.9 L
same,half-life,160 mg,14.5 h
same,concentration at 0.5 h,[6],8.78 µM
same,concentration at 0.5 h,[7],6.38 µM
same,concentration at 0.5 h,[8],6.83 µM
same,concentration at 0.5 h,[9],2.52 µM
same,concentration at 0.5 h,[10],5.86 µM
same,concentration at 1 h,[6],8.74 µM
same,concentration at 1 h,[7],7.26 µM
same,concentration at 1 h,[8],7.64 µM
same,concentration at 1 h,[9],3.92 µM
same,concentration at 1 h,[10],7.04 µM
same,concentration at 1.5 h,[6],8.83 µM
same,concentration at 1.5 h,[7],7.28 µM
same,concentration at 1.5 h,[8],7.38 µM
same,concentration at 1.5 h,[9],5.19 µM
same,concentration at 1.5 h,[10],7.19 µM
same,concentration at 1.5 h,[11],7.48 µM
same,concentration at 2 h,[6],8.64 µM
same,concentration at 2 h,[7],7.07 µM
same,concentration at 2 h,[8],6.79 µM
same,concentration at 2 h,[9],6.36 µM
same,concentration at 2 h,[10],7.03 µM
same,concentration at 2 h,[11],7.23 µM
same,concentration at 2.5 h,[6],8.03 µM
same,concentration at 2.5 h,[7],6.73 µM
same,concentration at 2.5 h,[8],6.55 µM
same,concentration at 2.5 h,[9],6.07 µM
same,concentration at 2.5 h,[10],6.7 µM
same,concentration at 2.5 h,[11],6.93 µM
same,concentration at 3 h,[6],7.45 µM
same,concentration at 3 h,[7],5.95 µM
same,concentration at 3 h,[8],5.8 µM
same,concentration at 3 h,[9],5.33 µM
same,concentration at 3 h,[10],5.91 µM
same,concentration at 3 h,[11],5.47 µM
same,concentration at 4 h,[6],6.75 µM
same,concentration at 4 h,[7],5.8 µM
same,concentration at 4 h,[8],5.79 µM
same,concentration at 4 h,[9],5.06 µM
same,concentration at 4 h,[10],5.77 µM
same,concentration at 4 h,[11],5.23 µM
same,concentration at 5 h,[6],5.22 µM
same,concentration at 5 h,[7],4.87 µM
same,concentration at 5 h,[8],4.9 µM
same,concentration at 5 h,[9],4.42 µM
same,concentration at 5 h,[10],4.86 µM
same,concentration at 5 h,[11],4.42 µM
same,concentration at 6 h,[6],5.32 µM
same,concentration at 6 h,[7],4.34 µM
same,concentration at 6 h,[8],4.23 µM
same,concentration at 6 h,[9],3.43 µM
same,concentration at 6 h,[10],4.29 µM
same,concentration at 6 h,[11],4.03 µM
same,concentration at 8 h,[6],4.58 µM
same,concentration at 8 h,[7],3.72 µM
same,concentration at 8 h,[8],3.74 µM
same,concentration at 8 h,[9],2.58 µM
same,concentration at 8 h,[10],3.67 µM
same,concentration at 8 h,[11],3.65 µM
same,concentration at 10 h,[6],4.29 µM
same,concentration at 10 h,[7],3.09 µM
same,concentration at 10 h,[8],3.04 µM
same,concentration at 10 h,[9],1.94 µM
same,concentration at 10 h,[10],3 µM
same,concentration at 12 h,[6],3.64 µM
same,concentration at 12 h,[7],2.99 µM
same,concentration at 12 h,[8],2.91 µM
same,concentration at 12 h,[9],2.71 µM
same,concentration at 12 h,[10],2.97 µM
same,concentration at 12 h,[11],2.71 µM
same,concentration at 24 h,"160 mg, BI 187004 plasma concentrations, 160 mg single oral, planned time 24 h, Max",2.69 µM
same,concentration at 24 h,"160 mg, BI 187004 plasma concentrations, 160 mg single oral, planned time 24 h, Mean",1.68 µM
same,concentration at 24 h,"160 mg, BI 187004 plasma concentrations, 160 mg single oral, planned time 24 h, Median",1.49 µM
same,concentration at 24 h,"160 mg, BI 187004 plasma concentrations, 160 mg single oral, planned time 24 h, Min",1.36 µM
same,concentration at 24 h,"160 mg, BI 187004 plasma concentrations, 160 mg single oral, planned time 24 h, gMean",1.63 µM
same,concentration at 24 h,"160 mg, BI 187004 plasma concentrations, 160 mg single oral, planned time 24 h, individual subjects",1.36 µM
